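Briefly, cells in 96-well plates were exposed to five compound concentrations for 48 h, and endpoints were estimated by linear interpolation. GI50 = concentration required for 50% inhibition of growth.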 Calls of active or inactive are those of the source. Cut-off read from the data, not from the text of the source: active = GI50 up to about 1.1 µM and inactive = higher.
Tests used:
Test in all cases: NCI-60 cell line screen, 48 h
HOP-62 = system: HOP-62
A549 = system: A549
BT-549 = system: BT-549
NCI-H522 = system: NCI-H522
K562 = system: K562
MDA-N = system: MDA-N
SR = system: SR
RXF 393 = system: RXF 393
HT-29 = system: HT-29
DU-145 = system: DU-145
MDA-MB-435 = system: MDA-MB-435
HCT-116 = system: HCT-116
MDA-MB-231 = system: MDA-MB-231
CAKI-1 = system: CAKI-1
SF-268 = system: SF-268
COLO 205 = system: COLO 205
NCI-H460 = system: NCI-H460
786-0 = system: 786-0
Hs-578T = system: Hs-578T
HL-60 = system: HL-60
MCF7 = system: MCF7
UO-31 = system: UO-31
TK-10 = system: TK-10
SF-539 = system: SF-539
SN12C = system: SN12C
MOLT-4 = system: MOLT-4
SF-295 = system: SF-295
HCC 2998 = system: HCC 2998
SK-OV-3 = system: SK-OV-3
SK-MEL-2 = system: SK-MEL-2
NCI-H23 = system: NCI-H23
ACHN = system: ACHN
SK-MEL-28 = system: SK-MEL-28
U-251 = system: U-251
CCRF-CEM = system: CCRF-CEM
PC-3 = system: PC-3
HOP-92 = system: HOP-92
OVCAR-3 = system: OVCAR-3
SK-MEL-5 = system: SK-MEL-5
NCI-H226 = system: NCI-H226
M14 = system: M14
NCI/ADR-RES = system: NCI/ADR-RES
IGROV-1 = system: IGROV-1
EKVX = system: EKVX
KM12 = system: KM12
SW-620 = system: SW-620
HCT-15 = system: HCT-15
OVCAR-8 = system: OVCAR-8
UACC-257 = system: UACC-257
SNB-75 = system: SNB-75
SNB-19 = system: SNB-19
T47D = system: T47D
OVCAR-5 = system: OVCAR-5
RPMI-8226 = system: RPMI-8226
Malme-3M = system: Malme-3M
OVCAR-4 = system: OVCAR-4
UACC-62 = system: UACC-62
A498 = system: A498

Cc1ccc(-c2n[nH]c(=O)n2/N=C\c2ccccc2O)cc1
GI50 (HOP-62): > 100 µM (inactive)
GI50 (A549): > 100 µM (inactive)
GI50 (BT-549): > 100 µM (inactive)
GI50 (NCI-H522): > 100 µM (inactive)
GI50 (K562): > 100 µM (inactive)
GI50 (MDA-N): > 100 µM (inactive)
GI50 (SR): > 100 µM (inactive)
GI50 (RXF 393): 57.8 µM (inactive)
GI50 (HT-29): > 100 µM (inactive)
GI50 (DU-145): > 100 µM (inactive)
GI50 (MDA-MB-435): > 100 µM (inactive)
GI50 (HCT-116): > 100 µM (inactive)
GI50 (MDA-MB-231): 68.5 µM (inactive)
GI50 (CAKI-1): > 100 µM (inactive)
GI50 (SF-268): > 100 µM (inactive)
GI50 (COLO 205): > 100 µM (inactive)
GI50 (NCI-H460): > 100 µM (inactive)
GI50 (786-0): > 100 µM (inactive)
GI50 (Hs-578T): 51.4 µM (inactive)
GI50 (HL-60): > 100 µM (inactive)
GI50 (MCF7): 55.6 µM (inactive)
GI50 (UO-31): > 100 µM (inactive)
GI50 (TK-10): > 100 µM (inactive)
GI50 (SF-539): > 100 µM (inactive)
GI50 (SN12C): > 100 µM (inactive)
GI50 (MOLT-4): > 100 µM (inactive)
GI50 (SF-295): > 100 µM (inactive)
GI50 (HCC 2998): > 100 µM (inactive)
GI50 (SK-OV-3): 81.3 µM (inactive)
GI50 (SK-MEL-2): > 100 µM (inactive)
GI50 (NCI-H23): > 100 µM (inactive)
GI50 (ACHN): > 100 µM (inactive)
GI50 (SK-MEL-28): > 100 µM (inactive)
GI50 (U-251): > 100 µM (inactive)
GI50 (CCRF-CEM): > 100 µM (inactive)
GI50 (PC-3): > 100 µM (inactive)
GI50 (HOP-92): > 100 µM (inactive)
GI50 (OVCAR-3): > 100 µM (inactive)
GI50 (SK-MEL-5): > 100 µM (inactive)
GI50 (NCI-H226): > 100 µM (inactive)
GI50 (M14): > 100 µM (inactive)
GI50 (NCI/ADR-RES): > 100 µM (inactive)
GI50 (IGROV-1): > 100 µM (inactive)
GI50 (EKVX): > 100 µM (inactive)
GI50 (KM12): > 100 µM (inactive)
GI50 (SW-620): > 100 µM (inactive)
GI50 (HCT-15): > 100 µM
GI50 (OVCAR-8): > 100 µM (inactive)
GI50 (UACC-257): > 100 µM (inactive)
GI50 (SNB-75): > 100 µM (inactive)
GI50 (SNB-19): > 100 µM (inactive)
GI50 (T47D): 94 µM (inactive)
GI50 (OVCAR-5): > 100 µM (inactive)
GI50 (RPMI-8226): > 100 µM (inactive)
GI50 (Malme-3M): > 100 µM (inactive)
GI50 (OVCAR-4): > 100 µM (inactive)

CC(C)c1cc(C(F)(F)F)nc(NNc2nc(C(C)C)cc(C(F)(F)F)n2)n1
GI50 (HOP-62): 13.2 µM (inactive)
GI50 (A549): 94 µM (inactive)
GI50 (BT-549): > 100 µM (inactive)
GI50 (NCI-H522): > 100 µM (inactive)
GI50 (K562): > 100 µM (inactive)
GI50 (MDA-N): > 100 µM (inactive)
GI50 (SR): > 100 µM (inactive)
GI50 (RXF 393): 32.4 µM (inactive)
GI50 (HT-29): > 100 µM (inactive)
GI50 (DU-145): > 100 µM (inactive)
GI50 (MDA-MB-435): > 100 µM (inactive)
GI50 (HCT-116): 93.8 µM (inactive)
GI50 (MDA-MB-231): 65.3 µM (inactive)
GI50 (CAKI-1): 64.7 µM (inactive)
GI50 (SF-268): > 100 µM (inactive)
GI50 (COLO 205): > 100 µM (inactive)
GI50 (NCI-H460): 62.8 µM (inactive)
GI50 (786-0): 28.4 µM (inactive)
GI50 (UACC-62): 80 µM (inactive)
GI50 (Hs-578T): 79.4 µM (inactive)
GI50 (HL-60): > 100 µM (inactive)
GI50 (MCF7): > 100 µM (inactive)
GI50 (UO-31): > 100 µM (inactive)
GI50 (TK-10): 19.1 µM (inactive)
GI50 (SF-539): 90.8 µM (inactive)
GI50 (SN12C): > 100 µM (inactive)
GI50 (MOLT-4): > 100 µM (inactive)
GI50 (SF-295): 37.1 µM (inactive)
GI50 (SK-OV-3): 33.7 µM (inactive)
GI50 (SK-MEL-2): > 100 µM (inactive)
GI50 (NCI-H23): 53.8 µM (inactive)
GI50 (ACHN): 56.8 µM (inactive)
GI50 (SK-MEL-28): > 100 µM (inactive)
GI50 (U-251): 45.8 µM (inactive)
GI50 (CCRF-CEM): > 100 µM (inactive)
GI50 (PC-3): > 100 µM (inactive)
GI50 (HOP-92): > 100 µM (inactive)
GI50 (OVCAR-3): 17.1 µM (inactive)
GI50 (SK-MEL-5): > 100 µM (inactive)
GI50 (NCI-H226): > 100 µM (inactive)
GI50 (M14): 67.9 µM (inactive)
GI50 (NCI/ADR-RES): > 100 µM (inactive)
GI50 (IGROV-1): > 100 µM (inactive)
GI50 (EKVX): 67.5 µM (inactive)
GI50 (KM12): > 100 µM (inactive)
GI50 (SW-620): > 100 µM (inactive)
GI50 (HCT-15): > 100 µM
GI50 (OVCAR-8): > 100 µM (inactive)
GI50 (UACC-257): 15.9 µM (inactive)
GI50 (SNB-75): 24.2 µM (inactive)
GI50 (SNB-19): 41.7 µM (inactive)
GI50 (A498): > 100 µM (inactive)
GI50 (T47D): > 100 µM (inactive)
GI50 (OVCAR-5): > 100 µM (inactive)
GI50 (RPMI-8226): > 100 µM (inactive)
GI50 (Malme-3M): 49 µM (inactive)
GI50 (OVCAR-4): 72.6 µM (inactive)
